According to US20220204509A1, “PYRIMIDO FIVE-MEMBERED HETEROCYCLIC COMPOUND AND USE THEREOF AS MUTANT IDH2 INHIBITOR” (EPITAS BIOSCIENCES (SHANGHAI) CO., LTD., priority 2019, published 2022):
Numbering of substitutions follows the chain as printed.

Key:
[1] = molecular target: T1, IDH2/R140Q (Homo sapiens, UniProt P48735, R140Q); experiment: Inhibition of mutant IDH2 activity at the cell level (extracellular 2-HG, U87MG overexpressing IDH2/R140Q); format: cell-based; conditions: U87MG overexpressing IDH2/R140Q; 2-HG in medium after 24 hours of culturing with compound; read-out: IC50
T1 sequence (P48735 40-452 R140Q): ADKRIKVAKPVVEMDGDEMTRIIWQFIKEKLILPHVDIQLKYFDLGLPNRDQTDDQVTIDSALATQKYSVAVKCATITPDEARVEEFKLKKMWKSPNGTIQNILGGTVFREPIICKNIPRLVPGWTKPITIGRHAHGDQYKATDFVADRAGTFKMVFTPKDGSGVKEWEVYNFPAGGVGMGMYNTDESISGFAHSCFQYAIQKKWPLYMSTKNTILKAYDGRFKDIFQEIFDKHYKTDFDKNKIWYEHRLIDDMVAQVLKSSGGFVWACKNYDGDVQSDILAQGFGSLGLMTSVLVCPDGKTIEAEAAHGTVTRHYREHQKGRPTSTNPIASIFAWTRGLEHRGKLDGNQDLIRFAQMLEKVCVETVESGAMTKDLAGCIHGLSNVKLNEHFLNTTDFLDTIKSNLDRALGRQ
Experimental: 2-hydroxyglutarate dehydrogenase (2HGDH) can reduce NAD+ to NADH in the presence of 2-HG. The latter can be quantitatively detected by diaphorase and its substrate Resazurin.
The glioma cells U87MG overexpressing IDH2/R140Q mutation were cultured in 1% sodium pyruvate high-sugar MEM, 10% FBS, and placed in a CO2 incubator (37° C., 5% CO2, 95% air) for cultivation.
The cells were digested with trypsin and seeded in a 96-well plate at a density of 1×10^4 with a medium of 200 μL and cultured in a 37° C. incubator overnight. The next day, the test compound was added to a final concentration of 0.1% for DMSO. […] The protein and other components in the medium that may interfere with the results were filtered, and the follow-up method was used to detect the content of 2-HG. 50 uL CellTiter-Glo (purchased from Promega) was added to the 96-well plate with the remaining 100 μL of medium to detect cell survival;
Extracellular 2-HG detecting system:
(1) 50 μL reaction system: reaction buffer (50 mM Tris pH7.5, 100 mM NaCl, 20 mM MgCl2, 0.05% BSA), in which the final concentration of NAD+ was 40 μM, the final concentration of 2HGDH was 20 nM, and the test sample was added to 5 μL of medium; the reaction solution was mixed and centrifuged, and the reaction was carried out for 1 hour at 25° C. in the dark;
Preparation of 2-HG standard curve: a 2-HG stock solution was diluted to 20 μM with reaction buffer, and a 2-fold gradient diluting was performed for a total of 6 points. Afterwards, the above-mentioned 2-HG was measured according to the extracellular 2-HG detecting system, and a standard curve was calculated and drawn.
Calculation of extracellular 2-HG content:
The fluorescence value obtained in the extracellular 2-HG detecting system was calculated using the 2-HG standard curve to calculate the content of 2-HG in the medium, and DMSO was used as a negative control to calculate the compound's inhibition against IDH2/R140Q mutation producing 2-HG activity.

[2] = molecular target: T1, IDH2/R140Q; experiment: Determination of the inhibitory activity of the compounds on IDH2/R140Q (NADPH reduction, resazurin/lipoamide dehydrogenase detection); format: biochemical; set-up: purchased Abcam ab198153; conditions: IDH2/R140Q inhibitory activity; pre-incubated at 25° C. for 16 hours; read-out: IC50
Experimental: In this example, the inhibitory activity of a compound on IDH2/R140Q was determined by measuring the reduction of the cofactor NADPH. The compound was incubated with IDH2/R140Q and NADPH, and then the reaction was initiated by adding α-KG. After a certain time of reaction under linear conditions, lipoamide dehydrogenase and the corresponding substrate resazurin were added for detection. Lipoamide dehydrogenase terminated the IDH2/R140Q reaction bγ subtracting the available cofactor NADPH. It oxidized NADPH to NADP, and reduced resazurin to highly fluorescent resorufin. The production of resorufin was detected to quantify the amount of cofactor NADPH remaining after a specific reaction time.
Then 25 μL of a stop mixed solution (lipoamide dehydrogenase 36 μg/mL, resazurin 30 μM) prepared with the above reaction buffer was added to convert resazurin to resorufin to measure the remaining NADPH. After 10 minutes of incubation at 25° C., the fluorescence value was measured by Tecan […] […] The enzyme activity was measured at 10 concentrations for each compound, and multiple background holes without enzyme and full enzyme activity holes without compound were set up in the reaction. The concentration of dimethyl sulfoxide in the system was less than or equal to 2%. […] The multi-well plate in this example was purchased from Thermo Fisher Scientific, NADPH, α-KG, lipoamide dehydrogenase, and resazurin were purchased from Shenggong Bioengineering Co., Ltd., and IDH2/R140Q was purchased from Abcam (ab198153).

[3] = molecular target: T2, IDH2/WT (Homo sapiens, UniProt P48735); experiment: Determination of the selectivity of compounds to wild-type IDH2 (IDH2/WT); format: biochemical; conditions: Inhibitory activity on IDH2/WT; pre-incubated at 25° C. for 16 hours
T2 construct: made in house; host or cells: E. coli
T2 sequence (P48735 40-452): T1 sequence (P48735 40-452 R140Q) with Q101R
Experimental: The compound was incubated with IDH2/WT and NADP, and then the reaction was initiated by adding isocitrate. After a certain time of reaction under linear conditions, lipoamide dehydrogenase and resazurin were added to detect the amount of fluorescent substances. In this experiment, NADP was reduced to NADPH. The latter reduced resazurin to highly fluorescent resorufin under the action of lipoamide dehydrogenase. The production of resorufin was detected to quantify the amount of cofactor NADPH generated after a specific reaction time, so as to calculate the compound's inhibitory effect on IDH2/WT.
Specifically, in a 96-well plate, in a total reaction volume of 50 μL, a mixture of 0.6 nM IDH2/WT, serially diluted inhibitors, and 50 μM NADP in a reaction buffer containing Tris-HCl 20 mM (pH 7.5), 150 mM NaCl, 10 mM MgCl2, 10% Glycerol, 0.03% BSA, and 2.5 mM β-mercaptoethanol, was pre-incubated at 25° C. for 16 hours. Isocitrate was added to 50 μM and the reaction was carried out at 25° C. for 30 minutes. Then 25 μL of a mixed solution (lipoamide dehydrogenase 36 μg/mL, resazurin 30 μM) prepared with the above reaction buffer was added to convert resazurin to resorufin to measure the NADPH produced. After 10 minutes of incubation at 25° C., the fluorescence value was measured by Tecan INFINITE F FLEX under Ex544/Em590. The enzyme activity was measured at 10 concentrations for each compound, and multiple background holes without enzyme and full enzyme activity holes without compound were set up in the reaction. The concentration of dimethyl sulfoxide in the system was less than or equal to 2%. The value of IC50 was obtained by the formula: Y=100/(1+10^((Log IC50−X)*HillSlope)) using XLFit5 software (IDBS Software). In the method, the multi-well plate was purchased from Thermo Fisher Scientific, NADP, α-KG, lipoamide dehydrogenase, and resazurin were purchased from Shenggong Bioengineering Co., Ltd., and IDH2/WT was obtained by purification after E. coli overexpression.

Cc1cc2c(NC(C)C)nc(-c3ccccc3F)nc2[nH]1 [Compound 25, 2-(2-fluorophenyl)-N-isopropyl-6-methyl-7H-pyrrolo[2,3-d]pyrimidin-4-amine]
IC50 [1]: 100 to 1000 nM
IC50 [2]: 100 to 1000 nM
IC50 [3]: > 5000 nM
